From the SangsterLogP compilation

Experiment: method code SF-AS, from DOI: 10.1021/bi00362a019, PMID: 3017413

For NC(N)=N/N=C/c1ccc([N+](=O)[O-])cc1, which logP is on record?
The logP was 0.87.

For CCOc1ccc(/C=N/N=C(N)N)cc1, which logP is on record?
The logP was 0.24.

For NC(N)=N/N=C/c1ccc(Oc2ccccc2)cc1, which logP is on record?
Its logP is 1.87.

Which logP does the source give for CC(C)(C)Oc1ccc(/C=N/N=C(N)N)cc1 here?
The logP was 1.38.

For N=C(N)NN=Cc1ccc(Cl)cc1, which logP is on record?
The logP was 0.96.

For CCN(CC)c1ccc(C=NN=C(N)N)cc1, which logP is on record?
The logP was 0.56.

For CN(C)c1ccc(/C=N/N=C(N)N)cc1, which logP is on record?
The logP was 0.28.

Which logP does the source give for NC(N)=N/N=C/c1ccc(Br)cc1 here?
The logP was 1.3.

For NC(N)=N/N=C/c1ccc(Cl)c([N+](=O)[O-])c1, which logP is on record?
Its logP is 0.53.

For N=C(N)NN=Cc1ccc(-c2ccccc2)cc1, which logP is on record?
The logP was 1.49.

For COc1ccc(/C=N/N=C(N)N)cc1, which logP is on record?
Its logP is 0.29.

With NC(N)=N/N=C/c1cccc([N+](=O)[O-])c1 as the molecule, how does the logP read?
Its logP is 0.01.

With NC(N)=N/N=C/c1ccccc1[N+](=O)[O-] as the molecule, how does the logP read?
The logP was 0.53.
